Data reported in paper PMC7471840, “Autoantigens PLA2R and THSD7A in membranous nephropathy share a common epitope motif in the N-terminal domain” (Journal of Autoimmunity, 2020).

Legend:
[1] = system: affinity purified antibodies from PLA2R positive sera against PLA2R antigen; assay: BLI of affinity purified anti-PLA2R (against PLA2R antigen); format: binding, human; settings: immobilized peptide, antibodies eluted from PLA2R antigen beads (positive control)
Description: (§1) 2 mg of MyOne™ carboxylic acid dynabeads per condition (Invitrogen, UK) were activated using 18.75 mg/ml EDC (N-3-dimethylaminopropyl- N′-ethylcarbodiimide hydrochloride, Sigma-Aldrich). 800 μg/ml of recombinant PLA2R fragment (NC3) and peptides (P28mer, T28mer or T28mer scrambled peptide) diluted in 15 mM MES buffer pH 6 were covalently immobilized overnight at 4 °C. The conditioned beads were then deactivated using 1 M ethanolamine (Bio-Rad) for 1 h. Pooled anti-THSD7A positive MN patient sera were diluted 1:50 in PBS-T and incubated (overnight at 4 °C with agitation) with 1 mg of either blank immobilized, T28mer immobilized or T28mer scrambled peptide immobilized magnetic beads. Pooled anti-PLA2R positive MN patient sera were similarly diluted and incubated with blank immobilized, PLA2R antigen immobilized or P28mer immobilized magnetic beads. Magnetic beads from all conditions were then precipitated, the supernatants removed, and washed three times in PBS-T. Bound antibodies were eluted with 0.1 M glycine pH 2.2 and the eluates from each condition were neutralized using 1 M TrisHCl pH 8. The affinity-purified eluate from each condition was then evaluated for binding to the P28mer and T28mer by BLI. The BLI analysis was executed as stated in section 2.9.1.1. with modification of the running buffer. […]

[2] = system: unrelated mouse monoclonal raised against transferrin receptor; assay: Slot blotting of peptides with unrelated mouse monoclonal; format: binding; settings: slot blot, non-reducing; 1 μg peptide; antibody 1:5000
Description: (§2) PLA2R, CysR domain, THSD7A (R&D Systems) and TSR1 protein samples (1 μg per lane) were resolved using 4–12% BisTris gradient gels with the MES buffer system, transferred to nitrocellulose membranes and blotted using patient sera (1:100 dilution) followed by incubation with Alexa Fluor® 680-AffiniPure Goat Anti-Human IgG, Fcγ Fragment Specific (min X Bov,Hrs,Ms Sr Prot) (1:10,000 dilution; Jackson Labs). Proteins were also analyzed using Moab 20-2-6, a monoclonal anti-PLA2R mouse antibody raised against a PLA2R fragment (see 2.4.1 for further details) at dilution 1:5000. Protein bands were visualized using an Odyssey Imaging System (LI-COR) at 700 nm and the intensity settings were kept constant for all blots allowing comparison. For slot blotting, 1 μg of proteins or peptides (P28mer aa38–65 and T28mer aa75-102 synthesized by ProImmune Ltd, Oxford, UK) were blotted directly onto nitrocellulose membrane and vacuum applied. For the reducing condition, samples were diluted in 10 mM Tris pH 8 then reduced and alkylated by sequential incubation with 50 mM DTT for 1 h at 37 °C and then with 125 mM iodoacetamide for 20 min in the dark. The reduced samples along with unreduced were blotted as described above.
(§3) Fig.10 – Specificity of Moab 20-2-6 to P28mer and T28mer.
(§4) Slot blot analysis of unrelated mouse monoclonal
(§5) Moab anti-Transferrin secondary only control […]

Moab 20-2-6 [3] = assay: Slot blotting of peptides with Moab 20-2-6; format: binding, mouse; settings: non-reducing, 1 μg peptide, antibody 1:5000
Description: as §2, §3, §4, §5

[4] = system: sera from ANCA vasculitis patients; assay: Slot blotting with ANCA vasculitis sera; format: binding, human; settings: slot blot, non-reducing; 1 μg peptide; pool of 5 sera, 1:100
Description: as §2
(§6) Fig.6 - Slot blot analysis of sera from IgAN and
(§7) Hu anti-IgAN Hu anti-ANCA Ponceau
(§8) CysR P28sc CysR P28sc CysR P28sc […]

[5] = system: affinity purified anti-T28mer (THSD7A autoantibodies); assay: BLI of affinity purified anti-T28mer; format: binding, human; settings: immobilized peptide, antibodies from anti-THSD7A sera eluted from T28mer beads, normalized to blank beads
Description: as §1

[6] = system: anti-THSD7A positive sera; assay: Slot blotting with anti-THSD7A positive sera; format: binding, human; settings: for binding of anti-THSD7A positive sera (slot blot): non-denaturing, 1 μg protein/peptide, sera 1:100, Fig. 2D
Description: as §2

anti-PLA2R positive sera = assay: Slot blotting with anti-PLA2R positive sera; format: binding, human; settings: non-denaturing; 1 μg protein/peptide; sera 1:100; Fig. 2D
Description: as §2

[7] = system: PLA2R autoantibodies in anti-PLA2R positive MN patient sera; assay: BLI off-rate of MN patient sera, anti-PLA2R positive sera on immobilized peptides; format: binding, human; settings: Octet Red, peptide immobilized on AR2G sensor, sera 1:100 in HEPES-T sera (10 mM HEPES, 150 mM NaCl, 0.05% Tween-20, 0.5% control sera), association 450s, dissociation 1200s, Hill fit, ten anti-PLA2R positive sera
Description: (§9) BLI experiments were conducted using an Octet Red (ForteBio, Nottingham, UK). P28mer and T28mer were diluted to 200 μg/ml in 10 mM sodium acetate, pH 4.5, and immobilized on an Octet AR2G sensor (ligand densities of 1.2 nm and 1.4 nm respectively). Patient sera were diluted 1:100 in HEPES-T sera (10 mM HEPES, 150 mM NaCl, 0.05% Tween-20 and 0.5% of a pool of human control sera). Three control normal sera were incorporated in the running buffer in order to provide the baseline binding (i.e. normalize the binding due to any spurious interaction) and allowing quantification of binding above this background. […] Sensors were incubated in MN sera for 450s (association phase) followed by HEPES-T sera for 1200s (dissociation phase). Regeneration was performed in 10 mM NaOH with three successive incubations. The peptide immobilized sensors responses to MN patient sera were calibrated against non-specific binding of each sensor to the HEPES-T sera buffer. The data were fitted to a Hill-1 plot with the inverse k value equivalent to the off rates (koff). Statistical analysis was performed using two way ANOVA multiple comparison or paired t-test as stated in the figure legends. p values of <0.05 were considered significant.

Moab 20-2-6 [8] = assay: SPR kinetics of Moab 20-2-6 on immobilized peptides; format: binding, mouse; settings: ProteOn XPR36, peptide immobilized on GLC chip, Moab 20-2-6 at 25-5 nM, Langmuir 1:1 with mass transfer, printed in Fig. 4B
Source text: Hybridoma production was undertaken by Proteogenix SAS (Schiltigheim, France). Mice were immunized with a fragment of human PLA2R protein (namely NC3, comprising the first five extracellular domains, CysR-FnII-CTLD1-CTLD2-CTLD3). Following fusion of spleen cells, 34 positive supernatants were found when screened by ELISA on the NC3 protein. Ten of the original 34 positive supernatants were taken forward for cloning. Following subcloning, 5 of 10 clones were selected for purification of monoclonal antibody which included antibody 20-2-6.
Kinetics were determined using a ProteOn XPR36 (Bio-Rad, Watford, UK). The P28mer and T28mer peptides were diluted to 200 μg/ml in 10 mM sodium acetate, pH 4.5, and immobilized on a ProteOn GLC sensor chip using standard amine coupling chemistry. […] Moab 20-2-6 was diluted to 25, 20, 15, 10, 5 nM in HEPES-T and injected for 120 s at 70 μl/min. The injection was stopped and dissociation phase measured for 800s. Buffer only and a blank immobilized lanes were used as controls and subtracted. The GLC sensor was regenerated in 10 mM NaOH with two successive injections. Kinetics were determined by fitting to a Langmuir 1:1 interaction model.

[9] = system: sera from IgA Nephropathy (IgAN) patients; assay: Slot blotting with IgA Nephropathy sera; format: binding, human; settings: slot blot, non-reducing; 1 μg peptide; pool of 5 sera, 1:100
Description: as §2, §6, §7, §8

[10] = Circular dichroism of the epitope peptides; format: physicochemical; settings: 0.5 mg/ml; for turn content / unordered content / α-helix content / β-sheet content: CD far-UV 190–260 nm, milliQ water, 0.05-cm path, average of 10 accumulations, BeStSel
Description: Lyophilized peptides were reconstituted in milliQ water to a concentration of 2.5 mg/ml and diluted to 0.5 mg/ml. CD Far-UV (190–260 nm) spectra were recorded using a Jasco-810 spectropolarimeter. Measurements were taken every 0.2 nm in a 0.05-cm path length cell. Spectra were corrected for buffer absorbance and represent an average of 10 accumulations. Spectra were recorded in millidegrees and converted to mean residue ellipticities using the following equation deltaE = mdeg x (0.1 x mrw)/path x conc_mg/ml x 3298 (where P28mer mrw = 109.5, T28mer mrw = 107.9). Estimation of secondary structure content was then performed using BeStSel software program.

[11] = system: affinity purified anti-P28mer (PLA2R autoantibodies); assay: BLI of affinity purified anti-P28mer; format: binding, human; settings: immobilized peptide, antibodies eluted from P28mer beads, normalized to blank beads
Description: as §1

[12] = system: THSD7A autoantibodies in anti-THSD7A positive MN patient sera; assay: BLI off-rate of MN patient sera, anti-THSD7A positive sera on immobilized peptides; format: binding, human; settings: for Koff (dissociation rate): BLI, Octet Red, peptide immobilized on AR2G sensor, sera 1:100 in HEPES-T sera (10 mM HEPES, 150 mM NaCl, 0.05% Tween-20, 0.5% control sera), association 450s, dissociation 1200s, Hill fit, ten anti-THSD7A positive sera
Description: as §9

Substance	binding of affinity purified PLA2R autoantibodies [1]	reactivity of unrelated mouse monoclonal to peptide [2]	reactivity of Moab 20-2-6 to peptide (slot blot) (Moab 20-2-6 [3])	binding of ANCA vasculitis sera [4]	binding of affinity purified anti-T28mer [5]	binding of anti-THSD7A positive sera (slot blot) [6]	binding of anti-PLA2R positive sera (slot blot) (anti-PLA2R positive sera)	Koff (dissociation rate) [7] [s⁻¹]	Kd (Moab 20-2-6 [8]) [pM]	binding of IgA Nephropathy sera [9]	turn content [10] [%]	unordered content [10] [%]	α-helix content [10] [%]	β-sheet content [10] [%]	binding of affinity purified anti-P28mer [11]	Koff (dissociation rate) [12] [s⁻¹]	number of anti-THSD7A sera recognizing the peptide ([6]; native blotting, ten anti-THSD7A sera tested)	negative peak in CD spectrum ([10]; CD far-UV)	preference of sera THSD7A autoantibodies between peptides (by dissociation rates) ([12]; T28mer vs P28mer, Fig. 3B **** p value < 0.001 (two-way ANOVA))
P28mer: known major PLA2R CysR epitope peptide, aa38-65, synthesized by ProImmune	bind to both epitope peptides	no reactivity	reactivity	no binding	bind to both epitope peptides	reacted with both P28mer and T28mer	reacted with both P28mer and T28mer	0.0028	88.7	no binding	21.3	45.2	12.1	21.3	bind to both epitope peptides	0.0068	–	–	–
T28mer: THSD7A epitope peptide, aa75-102, located in the TSR1 domain, synthesized by ProImmune (GPGGIQTRAVWCAHVEGWTTLHTNCKQA; UniProt Q9UPZ6 75-102, looked up, fragment)	bind to both epitope peptides	no reactivity	reactivity	no binding	bind to both epitope peptides	reacted with both P28mer and T28mer	reacted with both P28mer and T28mer	0.0009	101	no binding	15	46.7	6.5	31.8	bind to both epitope peptides	0.0013	All ten anti-THSD7A sera tested recognized the T28mer peptide	around 205 nm	preferentially bind to the T28mer over P28mer
